Among the data in patent publication US8134015B2, “Compound inhibiting in vivo phosphorous transport and medicine containing the same” (Kyowa Hakko Kirin Co., Ltd., priority 2003, dated 2012) are IC50 and inhibition values, retold here.

The target in the first assay is T1, rat NaPi-2b (Rattus norvegicus, UniProt Q9JJ09).
T1 construct: expressed in transfected cells; host or cells: Xenopus oocytes injected with cRNA
T1 sequence (Q9JJ09 1-695): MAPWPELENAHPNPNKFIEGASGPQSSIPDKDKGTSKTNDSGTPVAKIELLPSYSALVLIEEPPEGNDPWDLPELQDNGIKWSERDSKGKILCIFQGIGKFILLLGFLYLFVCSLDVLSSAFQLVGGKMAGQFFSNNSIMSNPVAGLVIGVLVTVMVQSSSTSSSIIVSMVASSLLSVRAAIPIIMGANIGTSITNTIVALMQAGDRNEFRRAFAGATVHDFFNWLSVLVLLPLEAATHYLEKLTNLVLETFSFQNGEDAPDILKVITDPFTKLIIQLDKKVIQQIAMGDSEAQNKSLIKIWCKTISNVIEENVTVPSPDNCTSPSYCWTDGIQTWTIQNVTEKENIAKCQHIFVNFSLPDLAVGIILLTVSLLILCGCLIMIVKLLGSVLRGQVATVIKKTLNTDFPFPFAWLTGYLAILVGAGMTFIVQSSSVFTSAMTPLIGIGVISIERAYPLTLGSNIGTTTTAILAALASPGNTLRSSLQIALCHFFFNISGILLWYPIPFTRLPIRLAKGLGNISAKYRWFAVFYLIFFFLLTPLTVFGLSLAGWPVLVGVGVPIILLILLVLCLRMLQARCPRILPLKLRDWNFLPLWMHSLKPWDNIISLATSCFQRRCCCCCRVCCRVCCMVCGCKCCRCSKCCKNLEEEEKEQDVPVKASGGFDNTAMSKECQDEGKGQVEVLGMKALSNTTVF
Description: Sodium-dependent phosphate uptake of Xenopus oocytes which expressed NaPi-2b (32P). The format is cell-based. To be noted: Xenopus oocytes expressing rat NaPi-2b, 32P radioactive phosphorus; read-out: IC50 (phosphate uptake inhibitory activity). The procedure, abridged: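 Rat small-intestine NaPi-2b cRNA injected into Xenopus oocytes, expressed for 2 days. Sodium-dependent phosphate uptake measured with 32P; % inhibition at 300 and 100 μM taken from the same inhibition curve.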
As to `O=C(Nc1ccc(Br)cc1C(=O)N/N=C/c1cccc(Cl)c1)c1ccc(F)cc1` [Compound 107, N-[4-Bromo-2-(3-chloro-benzylidene-hydrazinocarbonyl)-phenyl]-4-fluoro-benzamide], the IC50 (commonly the point on the concentration scale where inhibition reaches its midpoint) turned out to be 1.08 µM. As for `CN(CCO)Cc1cccc(C(=O)Nc2ccc(Cl)cc2C(=O)N/N=C/c2cccc(O)c2)c1` [Compound 402, N-[4-Chloro-2-(3-hydroxy-benzylidene-hydrazinocarbonyl)-phenyl]-3-{[(2-hydroxy-ethyl)-methyl-amino]-methyl}-benzamide], the 50% inhibitory concentration (IC50) amounted to 14.1 µM. Still for that read-out and setting: to `CCN(CC)CCN(CCN(CC)CC)Cc1cccc(C(=O)Nc2ccc(N3CCCCC3)cc2C(=O)N/N=C/c2ccc(C)c(C)c2)c1` [Compound 905, 3-{[Bis-(2-diethylamino-ethyl)-amino]-methyl}-N-[2-(3,4-dimethyl-benzylidene-hydrazinocarbonyl)-4-piperidin-1-yl-phenyl]-benzamide] belongs 1.18 µM; to `Cc1ccc(/C=N/NC(=O)c2cc(I)ccc2NC(=O)c2cccc(CN3CCC(N4CCCCC4)CC3)c2)cc1C` [Compound 486, 3-[1,4′]Bipiperidinyl-1′-ylmethyl-N-[2-(3,4-dimethyl-benzylidene-hydrazinocarbonyl)-4-iodo-phenyl]-benzamide], under 3 µM. For the compound `O=C(Nc1ccc(Br)cc1C(=O)N/N=C/c1ccc(F)cc1)c1cccc(CSc2ccncc2)c1` [Compound 196, N-[4-Bromo-2-(4-fluoro-benzylidene-hydrazinocarbonyl)-phenyl]-3-(pyridin-4-ylsulfanylmethyl)-benzamide], the half-maximal inhibitory concentration (IC50) came out at 0.61 µM. In the case of `CCN(CC)CCN(CCN(CC)CC)Cc1cccc(C(=O)Nc2ccc(N3CCCCC3)cc2C(=O)N/N=C/c2ccc(C)cc2)c1` [Compound 906, 3-{[Bis-(2-diethylamino-ethyl)-amino]-methyl}-N-[2-(4-methyl-benzylidene-hydrazinocarbonyl)-4-piperidin-1-yl-phenyl]-benzamide], the half-maximal inhibitory concentration (IC50) turned out to be 1.83 µM. In the case of `Cc1csc(NC(=O)c2cccc(CN3CCN(CCO)CC3)c2)c1C(=O)N/N=C/c1ccc(F)cc1` [Compound 577, N-[3-(4-Fluoro-benzylidene-hydrazinocarbonyl)-4-methyl-thiophen-2-yl]-3-[4-(2-hydroxy-ethyl)-piperazin-1-ylmethyl]-benzamide], the concentration for half-maximal inhibition (IC50) was under 3 µM.

`O=C(Nc1ccc(Br)cc1C(=O)N/N=C/c1ccc(Cl)cc1)c1ccc(F)cc1` [Compound 108, N-[4-Bromo-2-(4-chloro-benzylidene-hydrazinocarbonyl)-phenyl]-4-fluoro-benzamide]: the half-maximal inhibitory concentration (IC50) amounted to 3.83 µM. On the same count and under the same terms, next, `Cc1ccc(/C=N/NC(=O)c2cc(Br)ccc2NC(=O)c2cccc(CSc3ccncc3)c2)cc1` [Compound 198, N-[4-Bromo-2-(4-methyl-benzylidene-hydrazinocarbonyl)-phenyl]-3-(pyridin-4-ylsulfanylmethyl)-benzamide]: 2.71 µM. Consider `COc1ccc(/C=N/NC(=O)c2cc(N3CCN(C)CC3)ccc2NC(=O)c2cccc(CSCCO)c2)cc1` [Compound 1073, 3-(2-Hydroxy-ethylsulfanylmethyl)-N-[2-(4-methoxy-benzylidene-hydrazinocarbonyl)-4-(4-methyl-piperazin-1-yl)-phenyl]-benzamide], for which the IC50 came to 20.4 µM. The same measure, in the same setting: next, `Cc1ccc(/C=N/NC(=O)c2cc(Cl)ccc2NC(=O)c2ccccn2)cc1C` [Compound 363, Pyridin-2-carboxylic acid [4-chloro-2-(3,4-dimethyl-benzylidene-hydrazinocarbonyl)-phenyl]-amide]: under 1 µM. On to `Cc1ccc(/C=N/NC(=O)c2cc(Br)ccc2NC(=O)c2cccc(CS(=O)(=O)CCO)c2)cc1` [Compound 676, N-[4-Bromo-2-(4-methyl-benzylidene-hydrazinocarbonyl)-phenyl]-3-(2-hydroxy-ethanesulfonylmethyl)-benzamide], for which the IC50 is under 3 µM.

Take `Cc1ccc(/C=N/NC(=O)c2ccccc2NC(=O)c2cccc(F)c2)cc1` [Compound 84, 3-Fluoro-N-[2-(4-methyl-benzylidene-hydrazinocarbonyl)-phenyl]-benzamide]: the IC50 amounted to 8.42 µM. Turning to `Cc1ccc(/C=N/NC(=O)c2c(NC(=O)c3cccc(CN4CCC(CO)CC4)c3)sc3ccccc23)cc1` [Compound 799, 3-(4-Hydroxymethyl-piperidin-1-ylmethyl)-N-[3-(4-methyl-benzylidene-hydrazinocarbonyl)-benzo[b]thiophen-2-yl]-benzamide], the 50% inhibitory concentration (IC50) was 3.72 µM. Same read-out and setting: to `CCN(CC)CCN(C)Cc1cccc(C(=O)Nc2sc3c(c2C(=O)N/N=C/c2ccc(F)cc2)CCCC3)c1` [Compound 611, 3-{[(2-Diethylamino-ethyl)-methyl-amino]-methyl}-N-[3-(4-fluoro-benzylidene-hydrazinocarbonyl)-4,5,6,7-tetrahydro-benzo-[b]thiophen-2-yl]-benzamide] belongs 2.16 µM; to `Cc1ccc(/C=N/NC(=O)c2c(NC(=O)c3cccc(CN(CC(C)O)CC(C)O)c3)sc3c2CCC3)cc1` (stereo not drawn) [Compound 805, 3-{[Bis-(2-hydroxy-propyl)-amino]-methyl}-N-[3-(4-methyl-benzylidene-hydrazinocarbonyl)-5,6-dihydro-4H-cyclopenta[b]-thiophen-2-yl]-benzamide], 4.76 µM. `Cc1ccc(/C=N/NC(=O)c2cc(Cl)ccc2NC(=O)c2cccc(CN(C)CCCN(C)Cc3cccc(C(=O)Nc4ccc(Cl)cc4C(=O)N/N=C/c4ccc(C)c(C)c4)c3)c2)cc1C` [Compound 684, N1-[4-Chloro-2-({2-[(E)-1-(3,4-dimethylphenyl)methylidene]hydrazino}carbonyl}phenyl}-3-{[{3-[(3-{[4-chloro-2-({2-[(E)-1-(3,4-dimethylphenyl)methylidene]hydrazino}carbonyl}anilino}carbonyl}benzyl}(methyl)amino)propyl](methyl)amino)methyl)benzamide]: the IC50 was 54.3 µM.

On to `Cc1ccc(/C=N/NC(=O)c2cc(Cl)ccc2NC(=O)c2cccc(CSc3nnnn3CCN(C)C)c2)cc1` [Compound 465, N-[4-Chloro-2-(4-methyl-benzylidene-hydrazinocarbonyl)-phenyl]-3-[1-(2-dimethylamino-ethyl)-1H-tetrazol-5-ylsulfanylmethyl]-benzamide], for which the IC50 turned out to be 7.43 µM. The same measure, in the same setting: next, `COc1cc(OC)cc(C(=O)Nc2ccccc2C(=O)N/N=C/c2ccc(C)cc2)c1` [Compound 57, 3,5-Dimethoxy-N-[2-(4-methyl-benzylidene-hydrazinocarbonyl)-phenyl]-benzamide]: 1.02 µM.

As to `Cc1ccc(/C=N/NC(=O)c2c(C)csc2NC(=O)c2cccc(CN3CCN(c4ncccn4)CC3)c2)cc1C` [Compound 826, N-[3-(3,4-Dimethyl-benzylidene-hydrazinocarbonyl)-4-methyl-thiophen-2-yl]-3-(4-pyrimidin-2-yl-piperazin-1-ylmethyl)-benzamide], the half-maximal inhibitory concentration (IC50) was 4.44 µM. Same read-out and setting: next, `COc1ccc(C(=O)Nc2ccccc2C(=O)N/N=C/c2ccc(O)c(O)c2)cc1OC` [Compound 26, N-[2-(3,4-Dihydroxy-benzylidene-hydrazinocarbonyl)-phenyl]-3,4-dimethoxy-benzamide]: 25.4 µM.

Still in this assay, the particulars now being: phosphate uptake, oocytes expressing rat NaPi-2b; 300 μM, determined from inhibition curve.
As to `C/C(=N\NC(=O)c1ccccc1NC(=O)c1cccnc1)c1ccc(C)cc1` [Compound 251, N-[2-(1-p-Toluyl-ethylidene-hydrazinocarbonyl)-phenyl]-nicotinamide], at 300 µM the inhibition was 31.2%.

With `COc1ccc(C(=O)Nc2sc(C)cc2C(=O)N/N=C/c2ccc(Cl)c(C(F)(F)F)c2)cc1OC` [Compound 955, N-[3-(4-Chloro-3-trifluoromethyl-benzylidene-hydrazinocarbonyl)-5-methyl-thiophen-2-yl]-3,4-dimethoxy-benzamide], the inhibition (commonly the share of the control response that was lost under treatment) at 300 µM stood at 57.7%. On the same count and under the same terms, next, `COc1ccc(C(=O)Nc2ccccc2C(=O)N/N=C/c2ccccc2Cl)cc1OC` [Compound 231, N-[2-(2-Chloro-benzylidene-hydrazinocarbonyl)-phenyl]-3,4-dimethoxy-benzamide]: 32.8%. `Cc1cccc(/C=N/NC(=O)c2cc(Br)ccc2NC(=O)c2ccc(CN3CCC(CCO)CC3)cc2)c1` [Compound 742, N-[4-Bromo-2-(3-methyl-benzylidene-hydrazinocarbonyl)-phenyl]-4-[4-(2-hydroxy-ethyl)-piperidin-1-ylmethyl]-benzamide]: the inhibition at 300 µM amounted to 77.6%.

Compound `COc1ccc(C(=O)Nc2ccccc2C(=O)N/N=C/c2ccc(Br)cc2)cc1OC` [Compound 234, N-[2-(4-Bromo-benzylidene-hydrazinocarbonyl)-phenyl]-3,4-dimethoxy-benzamide] had an inhibition at 300 µM of 37.9%. Same read-out and setting: to `Cc1csc(C(=O)N/N=C/c2ccc(Cl)c(C(F)(F)F)c2)c1NC(=O)c1cccc(CN(CC(C)O)CC(C)O)c1` (stereo not drawn) [Compound 707, 3-{[Bis-(2-hydroxy-propyl)-amino]-methyl}-N-[2-(4-chloro-3-trifluoromethyl-benzylidene-hydrazinocarbonyl)-4-methyl-thiophen-3-yl]-benzamide] belongs 41.2%.
